Tests used:
ICR mice [1] = test: Hot plate test; assay type: in vivo; details: Mus musculus, po, latency 2.0 hours after administration, hot plate 55° C., read-out: PTE %; for change in vivo at 1 mg/kg: 1 mg/kg intragastric
Procedure: (§1) ICR mice, 18-22 g, half of them being male and the other half being female, provided by the Department of Laboratory Animals, Peking University (License No.: SCXK (Beijing) 2016-0010).
The temperature of hot plate was adjusted to 55° C., and the responses of mouse such as licking hind feet and jumping were used as the observation indexes. The time from the placement of mice on copper plate to the appearance of the above responses was defined as latency time. The latency time was measured for three times 30 minutes before administration, and the average value thereof was used as basic threshold, or baseline latency (BL). The animals with a latency time greater than 15 s and less than 5 s were removed, and the residual mice were randomly grouped, 8 animals per group.
Vehicle control group (double-distilled water) and groups for samples to be tested (the compounds and doses thereof were shown in Table 1) were set. All drugs were dissolved in […] before administration, and given by intragastric administration. The latency time was measured 2.0 hours after administration. Percentage of Pain Threshold Elevated Rate (PTE %) of compound on mice was calculated according to the following formula:
PTE %=(latency time of test group−latency time of vehicle control group)/latency time of vehicle control group×100

ICR mice [2] = test: Acetic acid writhing test; assay type: in vivo; parameters: key to Inhibition rate (%): Symbol “—” indicates that the data obtained at this dose was not significantly different from the vehicle control group; details: 0.6% acetic acid ip two hours after administration
Procedure: as §1
ICR mice, half of them being male and the other half being female, were randomly grouped, 8 mice per group. Vehicle control group (double-distilled water), ibuprofen control group, and groups for samples to be tested (the compounds and doses thereof were shown in Table 2) were set. All drugs were dissolved in double-distilled water before administration, and given by intragastric administration at predetermined doses. Two hours after the administration, the mice were intraperitoneally injected with 0.6% acetic acid solution (10 ml/kg, ip), and the number of times the mice writhed (abdomen depressed, buttock raised, body elongated) was recorded within 5-20 minutes. The inhibition rate % of compound on writhing pain in mice was calculated according to the following formula.
Inhibition rate %=(number of writhing times in vehicle control group−number of writhing times in test group)/number of writhing times in vehicle control group×100

ICR mice [3] = test: Formalin experiment; assay type: in vivo; details: Mus musculus, po, 2 h, 2.5% formalin two hours after administration, phase II 10-60 minutes, read-out: Phase II pain inhibition rate (%); for inhibition in vivo at 1 mg/kg: 1 mg/kg intragastric
Procedure: as §1
ICR mice, half of them being male and the other half being female, were randomly grouped, 8 mice per group. Vehicle control group (double-distilled water) and groups for samples to be tested were set, in which the compounds and doses thereof were shown in Table 3. All drugs were dissolved in double-distilled water before administration, and given by intragastric administration at predetermined doses. Two hours after administration, the mice were injected with 20 ul of 2.5% formalin solution in the right hind foot, and the time (s) of licking or biting foot was recorded as an index of pain response, in which 0-5 minutes was phase I, 10-60 minutes was phase II, and the total observation time was 60 minutes. The phase II pain inhibition rate of compound in mice was calculated according to the following formula:
Inhibition rate %=(time of licking or biting foot in vehicle control group−time of licking or biting foot in test group)/time of licking or biting foot in vehicle control group×100

ICR mice [4] = test: Xylene-induced mouse ear swelling test (Effect Example 4); assay type: in vivo; parameters: key to Inhibition rate (%): Symbol “—” indicates that the data obtained at this dose was not significantly different from the vehicle control group; details: 50 uL xylene two hours after administration; for Inhibition rate (%): 1 mg/kg intragastric
Procedure: as §1
ICR mice were randomly grouped, 8 mice per group, half of them being male and the other half being female. Vehicle control group (double-distilled water) and groups for samples to be tested (the compounds and doses thereof were shown in Table 4). All drugs were dissolved in double-distilled water immediately before administration, and given by intragastric administration at predetermined doses. Two hours after administration, 50 uL of xylene was smeared evenly on the inner and outer sides of right ear of mouse. After 30 minutes, the left and right ears of mouse were cut, and circular ear pieces of the same size were punched at the same position on the left and right ears, and weighed. The ear swelling inhibition rate of compound in mice was calculated according to the formula.
Inhibition rate %=(degree of ear swelling in vehicle control group−degree of ear swelling in test group)/degree of ear swelling in vehicle control group×100

CCI rats [5] = test: Mechanical stimulation paw withdrawal threshold (MWT) in CCI rats; assay type: in vivo, SD rats; details: 100 mg/kg i.g. daily; for inhibition rate (absolute %): PTE % vs vehicle; for MWT: mean±SEM; for inhibition rate (relative %): relative to sham minus vehicle
Procedure: (§2) SD rats, body weight 180 g-220 g, half of them being male and the other half being female, provided by the Department of Laboratory Animals, Peking University. The rats were raised in a standard environment with temperature of 22±0.5° C. and relative humidity of 55±5%, 12 h/12 h light-dark cycle, and fed with standard feed.
(§3) Rat was anesthetized with pentobarbital sodium (60 mg/kg, i.p.), the right hind limb was surgically shaved, fixed in the prone position, a longitudinal incision was made along the middle of the right hind limb of the rat, the muscle was bluntly separated, the sciatic nerve was exposed, and the sciatic nerve bifurcate proximal end was loosely ligated with 4-0 silk suture for 4 times, with an interval of about 1 mm each time, in which the degree of tightness was suitable when it was observed that the right hind leg was slightly shaken. After ligation, the muscle and skin were sutured in sequence. For the sham-operated group, the sciatic nerve was only exposed, but not ligated. The success of modeling was determined by observing whether the hind limb of the rat's operation side was closed, slightly valgus and often vacated, and by measuring the mechanical stimulation paw withdrawal threshold and the thermal stimulation paw withdrawal latency of the rat.
(§4) Before surgery, the mechanical stimulation paw withdrawal thresholds and the thermal stimulation paw withdrawal latencies in the rats were determined, and the rats were grouped as: sham operation group (sham), vehicle group (double-distilled water, i.g.), DXL-A-22 group (2 mg/kg, i.g.), DXL-A-24 group (1 mg/kg, i.g.), and Gabapentin group (100 mg/kg, i.g.). All compounds and drugs were dissolved in double-distilled water, and given by intragastric administration at 1 mL/100 g. From the first day after surgery, the administration was carried out every day, and the mechanical stimulation paw withdrawal threshold and the thermal stimulation paw withdrawal latency were measured 2 hours after administration.
The mechanical stimulation paw withdrawal threshold (MWT) of rats was detected by von Frey electronic pain tester. The measurement was carried out on the days 5, 7 and 14 after operation. The rats were placed in a transparent plexiglass box (whose bottom was a wire mesh with a gap of 1 mm^2) to adapt to the environment for 30 min. After the rats had no exploration action, the von Frey electronic pain tester was used to stimulate the middle position of paw at the operation side of the rat, and the maximum force caused by rat paw withdrawal response (i.e., MWT) was recorded. The inhibition rate of the compound was calculated according to the following formula:
Absolute increase rate (i.e., PTE %): PTE %=(MWT of test group−MWT of vehicle group)/MWT of vehicle group×100 (1)
Relative increase rate: Inhibition rate %=(MWT of test group−MWT of vehicle group)/(MWT of Sham operation group−MWT of vehicle group)×100 (2)

CCI rats [6] = test: Thermal stimulation paw withdrawal latency (PWL) in CCI rats; assay type: in vivo, SD rats; details: 100 mg/kg i.g. daily; for PWL: hot plate 50.5° C., cut-off 14s, mean±SEM
Procedure: as §2, §3, §4
The thermal stimulation paw withdrawal latency (PWL) was measured by a hot plate method. The measurement was carried out on the days 5, 7 and 14 after operation. The temperature of the hot plate was 50.5° C. Timing started when the rat was placed on the hot plate, and stopped when the shaking and foot licking responses of the rat appeared, and this time was the PWL of the rat. The hot plate cut-off time was 14s, and the percentage of analgesia (i.e., MPE %) was calculated according to formula (3):
MPE %=(PWL of test group−PWL of vehicle group)/(cut-off time−PWL of vehicle group)×100 (3)

[7] = Mus musculus, po, 2 h, 3 mg/kg intragastric, read-out: Inhibition rate (%)
[8] = Day 5 after operation, section 3.1
[9] = Day 5 after operation, section 3.3
[10] = Day 7 after operation, section 3.1
[11] = Day 7 after operation, section 3.3
[12] = Day 14 after operation, section 3.1
[13] = Day 14 after operation, section 3.3
[14] = Day 5 after operation, section 3.2
[15] = Day 5 after operation, section 3.4
[16] = Day 7 after operation, section 3.2
[17] = Day 7 after operation, section 3.4
[18] = Day 14 after operation, section 3.2
[19] = Day 14 after operation, section 3.4

## Br.N#Cc1ccc(N2CC[N+]3(CCCC3)CC2)cc1 [DXL-A-19, 8-(4-cyanophenyl)-5,8-diazaspiro[4.5]decan-5-ium bromide]
ICR mice [1]
  change in vivo at 1 mg/kg: 34.3%
ICR mice [2]; 1 mg/kg intragastric
  Inhibition rate (%): —
ICR mice [3]
  inhibition in vivo at 1 mg/kg: 34.3%
ICR mice [4]
  Inhibition rate (%): —

## Cc1cccc(N2CC[N+]3(CCCC3)CC2)c1 [DXL-A-10, 8-(m-tolyl)-5,8-diazaspiro[4.5]decan-5-ium bromide]
ICR mice [1]; 3 mg/kg intragastric
  change in vivo at 3 mg/kg: 11.2%
ICR mice [2]; [7]
  inhibition in vivo at 3 mg/kg: 29.8%
ICR mice [3]; 9 mg/kg intragastric
  inhibition in vivo at 9 mg/kg: 46.9%
ICR mice [4]; [7]
  inhibition in vivo at 3 mg/kg: 27.4%

## Clc1ccc(N2CC[N+]3(CCCC3)CC2)cc1.[Br-] [DXL-A-23, 8-(4-chlorophenyl)-5,8-diazaspiro[4.5]decan-5-ium bromide]
ICR mice [1]
  change in vivo at 1 mg/kg: 39.2%
ICR mice [2]; 1 mg/kg intragastric
  Inhibition rate (%): —
ICR mice [3]
  inhibition in vivo at 1 mg/kg: 39.2%
ICR mice [4]
  Inhibition rate (%): —

## Fc1ccccc1N1CC[N+]2(CCCC2)CC1.[Br-] [DXL-A-18, 8-(2-fluorophenyl)-5,8-diazaspiro[4.5]decan-5-ium bromide]
ICR mice [2]; Mus musculus, po, 2 h, 1 mg/kg intragastric, read-out: Inhibition rate (%)
  inhibition in vivo at 1 mg/kg: 21.7%
ICR mice [3]
  inhibition in vivo at 1 mg/kg: 22%
ICR mice [4]
  Inhibition rate (%): —

## CC(C)Cc1ccc(C(C)C(=O)O)cc1 (stereo not shown) [Ibuprofen table, Ibuprofen, reference compound]
ICR mice [2]; Mus musculus, po, 2 h, 200 mg/kg intragastric, read-out: Inhibition rate (%)
  inhibition in vivo at 200 mg/kg: 49.1%

## NCC1(CC(=O)O)CCCCC1 [Gabapentin, reference compound]
CCI rats [5]; [8]
  inhibition rate (absolute %): 99.36%
  MWT: 21.73 ± 0.49**/
  inhibition rate (relative %): 40.08%
CCI rats [5]; [9]
  inhibition rate (absolute %): 87.98%
  MWT: 21.73 ± 0.49**/
  inhibition rate (relative %): 41.04%
CCI rats [5]; [10]
  inhibition rate (absolute %): 128.67%
  MWT: 23.37 ± 1.34**/
  inhibition rate (relative %): 47.56%
CCI rats [5]; [11]
  inhibition rate (absolute %): 123.00%
  MWT: 23.37 ± 1.34**/
  inhibition rate (relative %): 49.94%
CCI rats [5]; [12]
  inhibition rate (absolute %): 101.42%
  MWT: 21.27 ± 0.82**/
  inhibition rate (relative %): 38.46%
CCI rats [5]; [13]
  inhibition rate (absolute %): 83.36%
  MWT: 21.27 ± 0.82**/
  inhibition rate (relative %): 36.91%
CCI rats [6]; [14]
  PWL: 11.37 ± 0.32**/
  MPE(%): 59.72%
CCI rats [6]; [15]
  PWL: 11.37 ± 0.32**/
  MPE(%): 54.02%
CCI rats [6]; [16]
  PWL: 11.76 ± 0.34**/
  MPE(%): 66.16%
CCI rats [6]; [17]
  PWL: 11.76 ± 0.34**/
  MPE(%): 62.48%
CCI rats [6]; [18]
  PWL: 11.88 ± 0.40**/
  MPE(%): 66.51%
CCI rats [6]; [19]
  PWL: 11.88 ± 0.40**/
  MPE(%): 67.88%

From US20200369674A1, “ANTI-PAIN COMPOUND AND PREPARATION METHOD THEREOF” (LUNAN PHARMACEUTICAL GROUP CORPORATION, priority 2017, published 2020)
